Measured values: patent USRE48711E1, “Apoptosis signal-regulating kinase inhibitors” (Gilead Sciences, Inc., priority 2009, dated 2021)
pIC50: −log10 of the molar value.

Each compound was assayed against ASK1 (Apoptosis Signal-Regulating Kinase 1) (Homo sapiens (Human), UniProt Q99683) (assay: ASK1 (Apoptosis Signal-Regulating Kinase 1) TR-FRET Kinase Assay (Biochemical IC50)). Details: TR-FRET, biotin-MBP substrate, 20 min pre-incubation, ATP added as 300 μM solution.
Sequence of ASK1 (Apoptosis Signal-Regulating Kinase 1) (Q99683 649-946): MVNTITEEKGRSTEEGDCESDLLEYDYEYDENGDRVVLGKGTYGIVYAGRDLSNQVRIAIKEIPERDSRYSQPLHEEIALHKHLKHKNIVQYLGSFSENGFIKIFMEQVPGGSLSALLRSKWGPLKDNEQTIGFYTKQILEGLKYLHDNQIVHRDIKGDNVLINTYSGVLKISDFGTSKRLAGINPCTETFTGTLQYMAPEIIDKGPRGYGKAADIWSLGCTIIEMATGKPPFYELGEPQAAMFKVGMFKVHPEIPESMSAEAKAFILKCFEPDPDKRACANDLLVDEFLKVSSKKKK
Protocol: The ability of compounds to inhibit ASK1 kinase activity was determined using a time resolved fluorescence resonance energy transfer [TR-FRET] assay utilizing biotinylated myelin basic protein [biotin-MBP] as the protein substrate. […] The enzyme was allowed to pre-incubate with compound for 20 minutes prior to initiating the kinase reaction with the addition of 5 μL/well 300 μM ATP in buffer (50 mM MOPS, pH 7.0, 5 mM Mg-acetate, 1 mM DTT, 5% DMSO) using the Decrac Fluidics Equator. The kinase reactions were allowed to proceed for 20 minutes at ambient temperature and were subsequently stopped with the addition of 5 μL/well 25 mM EDTA using the Deerac Fluidics Equator. […] The TR-FRET signal was then read on a Perkin. Elmer Envision plate reader after incubating the plates at ambient temperature for 2 hours.

pIC50	SMILES
6.07	O=C(Nc1cccc(-c2nncn2C2CC2)n1)c1cccc(-c2ccc(C3CC3)nc2)n1 [Example 258, 6′-cyclopropyl-N-(6-(4-cyclopropyl-4H-1,2,4-triazol-3-yl)pyridin-2-yl)-2,3′-bipyridine-6-carboxamide]
7.52	O=C(Nc1cccc(-c2nncn2C2CC2)n1)c1ccnc(-c2ccc(C3CC3)nc2)c1 [Example 260, 6′-cyclopropyl-N-(6-(4-cyclopropyl-4H-1,2,4-triazol-3-yl)pyridin-2-yl)-2,3′-bipyridine-4-carboxamide]
5.44	O=C(Nc1cccc(-c2nncn2C2CC2)c1)c1cccc(-c2ccc(C3CC3)nc2)n1 [Example 263, 6′-cyclopropyl-N-(3-(4-cyclopropyl-4H-1,2,4-triazol-3-yl)phenyl)-2,3′-bipyridine-6-carboxamide]
7.57	O=C(Nc1cccc(-c2nncn2C2CC2)n1)c1cc(-c2ccc(C3CC3)nc2)c(Cl)cc1F [Example 265, 4-chloro-N-(6-(4-cyclopropyl-4H-1,2,4-triazol-3-yl)pyridin-2-yl)-5-(6-cyclopropylpyridin-3-yl)-2-fluorobenzamide]
7.89	O=C(Nc1cccc(-c2nncn2C2CC2)c1)c1cc(-c2ccc(CC3CC3)nc2)ccn1 [Example 268, N-(3-(4-cyclopropyl-4H-1,2,4-triazol-3-yl)phenyl)-6-(cyclopropylmethyl)-3,4′-bipyridine-2′-carboxamide]
6.97	O=C(Nc1cccc(-c2nncn2C2CC2)c1)c1cc(-c2nnc(C3CC3)s2)ccn1 [Example 270, 4-(5-cyclopropyl-1,3,4-thiadiazol-2-yl)-N-(3-(4-cyclopropyl-4H-1,2,4-triazol-3-yl)phenyl)picolinamide]

The remaining lines, values behind:

SMILES	pIC50
Cn1c(-c2ccnc(C(=O)Nc3cccc(-c4nncn4C4CC4)c3)c2)nnc1C1CC1 [Example 255, 4-(5-cyclopropyl-4-methyl-4H-1,2,4-triazol-3-yl)-N-(3-(4-cyclopropyl-4H-1,2,4-triazol-3-yl)phenyl)picolinamide]	6.16
CN1CCc2c(ncn2-c2ccnc(C(=O)Nc3cccc(-c4nncn4C4CC4)n3)c2)C1C(F)(F)F (stereo not drawn) [Example 256, N-(6-(4-cyclopropyl-4H-1,2,4-triazol-3-yl)pyridin-2-yl)-4-(5-methyl-4-(trifluoromethyl)-4,5,6,7-tetrahydro-1H-imidazo[4,5-c]pyridin-1-yl)picolinamide]	8.40
CN1CCc2c(ncn2-c2ccnc(C(=O)Nc3cccc(-c4nncn4C4CC4)c3)c2)C1C(F)(F)F (stereo not drawn) [Example 257, N-(3-(4-cyclopropyl-4H-1,2,4-triazol-3-yl)phenyl)-4-(5-methyl-4-(trifluoromethyl)-4,5,6,7-tetrahydro-1H-imidazo[4,5-c]pyridin-1-yl)picolinamide]	8.22
O=C(Nc1cccc(-c2nncn2C2CC2)n1)c1cncc(-c2ccc(C3CC3)nc2)c1 [Example 259, 6′-cyclopropyl-N-(6-(4-cyclopropyl-4H-1,2,4-triazol-3-yl)pyridin-2-yl)-3,3′-bipyridine-5-carboxamide]	8.10
CC(C)[C@H](C)n1cnnc1-c1cccc(NC(=O)c2cc(-n3cnc(C4CC4)c3)ccn2)c1 [Example 264, (S)-4-(4-cyclopropyl-1H-imidazol-1-yl)-N-(3-(4-(3-methylbutan-2-yl)-4H-1,2,4-triazol-3-yl)phenyl)picolinamide]	7.64
O=C(Nc1cccc(-c2nncn2C2CC2c2ccccc2)c1)c1cc(-c2ccc(C3CC3)nc2)ccn1 (stereo not drawn) [Example 267, 6-cyclopropyl-N-(3-(4-(2-phenylcyclopropyl)-4H-1,2,4-triazol-3-yl)phenyl)-3,4′-bipyridine-2′-carboxamide]	6.37
O=C(Nc1cccc(-c2nncn2C2CC2)n1)c1cccc(-n2cc(C3CC3)nn2)c1 [Example 269, 3-(4-cyclopropyl-1H-1,2,3-triazol-1-yl)-N-(6-(4-cyclopropyl-4H-1,2,4-triazol-3-yl)pyridin-2-yl)benzamide]	7.64
COc1ccc(-c2ccc(C3CC3)nc2)cc1C(=O)Nc1cccc(-c2nncn2C2CC2)c1 [Example 271, N-(3-(4-cyclopropyl-4H-1,2,4-triazol-3-yl)phenyl)-5-(6-cyclopropylpyridin-3-yl)-2-methoxybenzamide]	7.62
COc1ccc(-n2cnc(C3CC3)c2)cc1C(=O)Nc1cccc(-c2nncn2C2CC2)c1 [Example 272, 5-(4-cyclopropyl-1H-imidazol-1-yl)-N-(3-(4-cyclopropyl-4H-1,2,4-triazol-3-yl)phenyl)-2-methoxybenzamide]	7.96
